Converted amounts (≈) assume the structure as drawn.
Legend:
[1] = target: human Fibroblast activation protein alpha (hFAP) (Homo sapiens (Human), UniProt Q12884); assay: hFAP inhibition assay (tight binders); format: biochemical; details: Ala-Pro-AMC 20 μM, n = 1 or geometric mean n = 2-6; further: hFAP 2.4 pM
Procedure: The plates were read on a PHERAstar® reader with excitation 340 nm and emission 460 nm. Data were analyzed in Genedata Screener®. IC50 values were determined by plotting % inhibition versus log compound concentration and using a one site dose response model.

[2] = Kinetic solubility; details: kinetic from dmso stock, Solubility, kinetic solubility; n = 1 or average of n = 2-3
Procedure: Kinetic solubility was measured as described in Comput Aided Mol Des 2015, 29, 795.

[3] = target: FAP (Homo sapiens (Human), UniProt Q12884); assay: hFAP inhibition assay; format: biochemical; details: hFAP […], Ala-Pro-AMC 20 μM; n = 1 or geometric mean n = 2-3
FAP, sequence (Q12884 38-760): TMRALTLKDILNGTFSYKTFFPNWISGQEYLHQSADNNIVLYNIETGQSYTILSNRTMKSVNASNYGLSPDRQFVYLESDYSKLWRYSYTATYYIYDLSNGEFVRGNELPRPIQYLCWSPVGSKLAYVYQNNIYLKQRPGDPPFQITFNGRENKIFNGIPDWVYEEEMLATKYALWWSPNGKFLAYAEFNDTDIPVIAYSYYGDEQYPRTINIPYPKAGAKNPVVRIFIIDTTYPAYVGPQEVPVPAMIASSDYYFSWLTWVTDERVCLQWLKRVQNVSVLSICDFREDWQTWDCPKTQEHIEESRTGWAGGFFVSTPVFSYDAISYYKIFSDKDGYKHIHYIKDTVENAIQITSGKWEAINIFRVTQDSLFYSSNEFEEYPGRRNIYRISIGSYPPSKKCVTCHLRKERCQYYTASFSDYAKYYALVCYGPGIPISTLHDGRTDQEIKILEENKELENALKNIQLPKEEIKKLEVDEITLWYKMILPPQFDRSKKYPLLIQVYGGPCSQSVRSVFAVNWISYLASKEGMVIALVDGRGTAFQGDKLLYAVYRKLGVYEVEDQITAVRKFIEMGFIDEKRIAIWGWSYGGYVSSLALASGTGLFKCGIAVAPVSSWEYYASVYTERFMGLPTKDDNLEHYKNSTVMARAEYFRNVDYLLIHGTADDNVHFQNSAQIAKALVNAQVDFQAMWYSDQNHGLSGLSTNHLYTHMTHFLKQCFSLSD
Procedure: 384 low volume black plates (Greiner #784076) were used. 4 μL, 0.48 nM enzyme solution (100 mM Tris HCl, 100 mM NaCl, 0.05% Chaps, pH 7.4) was added to 40 nL compounds (in DMSO) at 10 CR, 3 fold dilution series from 50 μM FAC. Plates were incubated for 15 min at rt in dark. 4 μL, 40 μM substrate solution (100 mM Tris HCl, 100 mM NaCl, 0.05% Chaps, pH 7.4) was added to each well. Plates were centrifuged at 1000 rpm and incubated for 30 min at rt in dark. The plates were read on a PHERAstar® reader with excitation 340 nm and emission 460 nm. Data were analyzed in Genedata Screener®. IC50 values were determined by plotting % inhibition versus log compound concentration and using a one site dose response model.

[4] = Metabolic stability in rat hepatocytes (rHep); details: n = 1 or geometric mean of n = 2-3
[5] = Metabolic stability in human liver microsomes (HLM); details: human, HLM CLint, n = 1 or average of n = 2-3
Procedure: Metabolic stability in HLM was measured as described in J Comput Aided Mol Des 2015, 29, 795.

[6] = target: hFAP (M39-A757) (Homo sapiens (Human), UniProt Q12884); assay: hFAP binding assay (surface plasmon resonance); details: SPR, 20° C.; for hFAP Binding assay k(off) / hFAP Binding assay k(on): single cycle kinetics; for Kd: n = 1 or geometric mean n = 2-4
hFAP (M39-A757), sequence (Q12884 39-757): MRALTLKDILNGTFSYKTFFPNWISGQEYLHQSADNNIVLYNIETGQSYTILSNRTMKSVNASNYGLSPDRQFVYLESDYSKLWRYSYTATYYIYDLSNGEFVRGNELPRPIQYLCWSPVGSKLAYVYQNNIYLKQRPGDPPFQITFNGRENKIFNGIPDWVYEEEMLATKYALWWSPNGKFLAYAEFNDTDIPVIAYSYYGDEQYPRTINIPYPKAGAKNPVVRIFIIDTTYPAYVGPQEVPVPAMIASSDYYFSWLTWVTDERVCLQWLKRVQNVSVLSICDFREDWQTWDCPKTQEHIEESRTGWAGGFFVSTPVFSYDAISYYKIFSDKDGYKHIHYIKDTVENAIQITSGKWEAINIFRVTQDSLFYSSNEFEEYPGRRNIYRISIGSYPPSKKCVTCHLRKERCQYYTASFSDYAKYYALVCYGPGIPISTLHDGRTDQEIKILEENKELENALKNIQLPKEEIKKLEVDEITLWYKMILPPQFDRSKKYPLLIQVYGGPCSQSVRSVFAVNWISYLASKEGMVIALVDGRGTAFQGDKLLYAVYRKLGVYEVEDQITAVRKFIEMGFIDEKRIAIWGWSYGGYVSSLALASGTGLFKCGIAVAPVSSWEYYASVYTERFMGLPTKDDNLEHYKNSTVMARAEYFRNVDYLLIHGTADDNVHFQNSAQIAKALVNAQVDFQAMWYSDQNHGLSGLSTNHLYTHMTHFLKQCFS

[7] = target: Prolyl endopeptidase, Prolyl Oligopeptidase (hPREP) (Homo sapiens (Human), UniProt P48147); assay: hPrep inhibition assay; format: biochemical; details: hPREP 0.6 nM, Z-Gly-Pro-amino-methylcoumarin 50 μM; read-out: PREP IC50
Prolyl endopeptidase, Prolyl Oligopeptidase (hPREP), sequence (P48147 whole entry): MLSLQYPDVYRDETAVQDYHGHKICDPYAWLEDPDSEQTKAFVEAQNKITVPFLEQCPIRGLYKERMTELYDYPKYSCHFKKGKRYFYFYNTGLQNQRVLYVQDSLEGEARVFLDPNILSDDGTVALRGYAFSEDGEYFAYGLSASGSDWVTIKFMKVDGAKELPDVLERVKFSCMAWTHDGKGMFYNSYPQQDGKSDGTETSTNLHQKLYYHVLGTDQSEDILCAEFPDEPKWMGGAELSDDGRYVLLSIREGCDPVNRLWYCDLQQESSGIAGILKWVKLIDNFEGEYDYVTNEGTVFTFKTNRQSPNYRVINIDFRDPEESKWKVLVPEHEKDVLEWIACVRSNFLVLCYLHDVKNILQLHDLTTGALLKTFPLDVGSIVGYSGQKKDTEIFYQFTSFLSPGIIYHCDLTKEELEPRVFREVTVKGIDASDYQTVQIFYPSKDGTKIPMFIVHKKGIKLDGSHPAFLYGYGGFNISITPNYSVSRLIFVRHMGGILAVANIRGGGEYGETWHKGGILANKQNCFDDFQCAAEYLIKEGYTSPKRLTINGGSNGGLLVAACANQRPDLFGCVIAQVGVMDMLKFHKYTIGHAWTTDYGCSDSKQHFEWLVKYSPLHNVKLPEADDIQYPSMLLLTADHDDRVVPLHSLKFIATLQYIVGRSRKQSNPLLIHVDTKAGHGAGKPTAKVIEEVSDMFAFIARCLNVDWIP
Outline: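 Recombinant human PREP at 0.6 nM final with Z-Gly-Pro-AMC substrate at 50 μM final in Tris-HCl pH 7.5, NaCl, Triton X-100, glutathione; 15 min rt preincubation then 20 min rt reaction in dark. AMC fluorescence (ex 340/em 460 nm); IC50 from one-site dose-response fit of % inhibition.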

human Fibroblast activation protein alpha (hFAP), sequence (Q12884 38-760): as the sequence (Q12884 38-760) above

SMILES | IC50 [1] | solubility [2] | IC50 [3] | rHep CLint [4] | microsomal CLint [5] | hFAP Binding assay k(off) [6] | hFAP Binding assay k(on) [6] | Kd [6] | IC50 [7]
CC1(C)CCCN1c1ccc2nccc(C(=O)NCC(=O)N3CSC[C@H]3C#N)c2c1 [Example 57, (R)—N-(2-(4-Cyanothiazolidin-3-yl)-2-oxoethyl)-6-(2,2-dimethylpyrrolidin-1-yl)quinoline-4-carboxamide] | 0.098 nM | 150 µM (≈ 63.5 µg/mL) | 0.26 nM | >300 μL/min/1E6 | > 300 µL/min/mg | 0.00018 s⁻¹ | 8000000 M⁻¹ s⁻¹ | 0.022 nM | 160 nM
COC[C@@H]1CCCN1c1ccc2nccc(C(=O)NCC(=O)N3CSC[C@H]3C#N)c2c1 [Example 212, N-(2-((R)-4-Cyanothiazolidin-3-yl)-2-oxoethyl)-6-((S)-2-(methoxymethyl)-pyrrolidin-1-yl)quinoline-4-carboxamide] | 0.26 nM | 16 µM (≈ 7.03 µg/mL) | 0.29 nM | 57 μL/min/1E6 | 110 µL/min/mg | 0.00034 s⁻¹ | 3300000 M⁻¹ s⁻¹ | 0.1 nM | 330 nM
CC1CN(c2ccc3nccc(C(=O)NCC(=O)N4CSC[C@H]4C#N)c3c2)C1 [Example 25, (R)—N-(2-(4-Cyanothiazolidin-3-yl)-2-oxoethyl)-6-(3-methylazetidin-1-yl)-quinoline-4-carboxamide] | 0.3 nM | 130 µM (≈ 51.4 µg/mL) | 0.41 nM | 14 μL/min/1E6 | 23 µL/min/mg | 0.00011 s⁻¹ | 1400000 M⁻¹ s⁻¹ | 0.076 nM | 370 nM
C[C@H]1COC[C@H](C)N1c1ccc2nccc(C(=O)NCC(=O)N3CSC[C@H]3C#N)c2c1 [Example 103, N-(2-((R)-4-Cyanothiazolidin-3-yl)-2-oxoethyl)-6-((3S,5S)-3,5-dimethyl-morpholino)quinoline-4-carboxamide] | 0.11 nM | > 1000 µM | 0.31 nM | 23 μL/min/1E6 | 54 µL/min/mg | 0.00010 s⁻¹ | 3000000 M⁻¹ s⁻¹ | 0.033 nM | 580 nM
Cc1cccc(C2CN(c3ccc4nccc(C(=O)NCC(=O)N5CSC[C@H]5C#N)c4c3)C2)c1 [Example 186, (R)—N-(2-(4-Cyanothiazolidin-3-yl)-2-oxoethyl)-6-(3-(m-tolyl)azetidin-1-yl)quinoline-4-carboxamide] | 0.1 nM | 130 µM (≈ 61.3 µg/mL) | 0.27 nM | 24 μL/min/1E6 | 70 µL/min/mg |  |  | 0.045 nM | 150 nM
C[C@@H]1CCN(c2ccc3nccc(C(=O)NCC(=O)N4CSC[C@H]4C#N)c3c2)CCO1 [Example 61, N-(2-((R)-4-Cyanothiazolidin-3-yl)-2-oxoethyl)-6-((R)-7-methyl-1,4-oxazepan-4-yl)quinoline-4-carboxamide] | 0.06 nM | 670 µM (≈ 294 µg/mL) | 0.21 nM | 26 μL/min/1E6 | 47 µL/min/mg |  |  | 0.062 nM | 390 nM
N#C[C@@H]1CSCN1C(=O)CNC(=O)c1ccnc2ccc(N3CC(c4ccc(F)cc4)C3)cc12 [Example 185, (R)—N-(2-(4-Cyanothiazolidin-3-yl)-2-oxoethyl)-6-(3-(4-fluorophenyl)-azetidin-1-yl)quinoline-4-carboxamide] | 0.12 nM | 7 µM (≈ 3.33 µg/mL) | 0.23 nM | 15 μL/min/1E6 | 58 µL/min/mg |  |  | 0.043 nM | 130 nM
CC[C@H]1COCCN1c1ccc2nccc(C(=O)NCC(=O)N3CSC[C@H]3C#N)c2c1 [Example 106, N-(2-((R)-4-Cyanothiazolidin-3-yl)-2-oxoethyl)-6-((S)-3-ethyl-morpholino)quinoline-4-carboxamide] | 0.08 nM | 700 µM (≈ 308 µg/mL) | 0.23 nM | 21 μL/min/1E6 | 47 µL/min/mg | 0.00014 s⁻¹ | 1800000 M⁻¹ s⁻¹ | 0.075 nM | 520 nM
C[C@H]1CCCN1c1ccc2nccc(C(=O)NCC(=O)N3CSC[C@H]3C#N)c2c1 [Example 65, N-(2-((R)-4-Cyanothiazolidin-3-yl)-2-oxoethyl)-6-((S)-2-methylpyrrolidin-1-yl)quinoline-4-carboxamide] | 0.17 nM | 49 µM (≈ 20.1 µg/mL) | 0.28 nM | 110 μL/min/1E6 | 150 µL/min/mg | 0.00047 s⁻¹ | 6700000 M⁻¹ s⁻¹ | 0.055 nM | 100 nM

The next lines start with the values.

IC50 [1] | solubility [2] | IC50 [3] | rHep CLint [4] | microsomal CLint [5] | hFAP Binding assay k(off) [6] | hFAP Binding assay k(on) [6] | Kd [6] | IC50 [7] | SMILES
0.045 nM | 57 µM (≈ 23.6 µg/mL) | 0.2 nM | 21 μL/min/1E6 | 22 µL/min/mg | 0.00019 s⁻¹ | 6800000 M⁻¹ s⁻¹ | 0.044 nM | 400 nM | N#C[C@@H]1CSCN1C(=O)CNC(=O)c1ccnc2ccc(N3CC[C@@H](F)C3)cc12 [Example 52, N-(2-((R)-4-Cyanothiazolidin-3-yl)-2-oxoethyl)-6-((R)-3-fluoropyrrolidin-1-yl)quinoline-4-carboxamide]
0.1 nM | 180 µM (≈ 79.1 µg/mL) | 0.22 nM | 14 μL/min/1E6 | 45 µL/min/mg | 0.00024 s⁻¹ | 9700000 M⁻¹ s⁻¹ | 0.031 nM | 760 nM | N#C[C@@H]1CSCN1C(=O)CNC(=O)c1ccnc2ccc(N3CC(F)(C4CC4)C3)cc12 [Example 31, (R)—N-(2-(4-Cyanothiazolidin-3-yl)-2-oxoethyl)-6-(3-cyclopropyl-3-fluoroazetidin-1-yl)quinoline-4-carboxamide]
0.22 nM | 770 µM (≈ 340 µg/mL) | 0.27 nM | 33 μL/min/1E6 | 38 µL/min/mg | 0.000082 s⁻¹ | 2200000 M⁻¹ s⁻¹ | 0.057 nM | 430 nM | CC1(F)CCN(c2ccc3nccc(C(=O)NCC(=O)N4CSC[C@H]4C#N)c3c2)CC1 [Example 34, (R)—N-(2-(4-Cyanothiazolidin-3-yl)-2-oxoethyl)-6-(4-fluoro-4-methyl-piperidin-1-yl)quinoline-4-carboxamide]
0.17 nM | 600 µM (≈ 267 µg/mL) | 0.47 nM | 64 μL/min/1E6 | 63 µL/min/mg | 0.00010 s⁻¹ | 900000 M⁻¹ s⁻¹ | 0.1 nM | 1700 nM | N#C[C@@H]1CSCN1C(=O)CNC(=O)c1ccnc2ccc(N3CCC(F)(F)CC3)cc12 [Example 35, (R)—N-(2-(4-Cyanothiazolidin-3-yl)-2-oxoethyl)-6-(4,4-difluoropiperidin-1-yl)quinoline-4-carboxamide]
